# In paper PMC10901353, “Identification of a potent and selective LAPTc inhibitor by RapidFire-Mass Spectrometry, with antichagasic activity” (PLOS Neglected Tropical Diseases, 2024):
# Values joined by “and” are separate entries in the source; they are usually repeats but may differ in a detail not shown here. Identical values can stand only once.
# System: intracellular T. cruzi amastigotes
# Test: T. cruzi intracellular assay (high-content imaging, infected Vero cells)
# Type: cell-based, Trypanosoma cruzi
# Set-up: Max Effect (T. cruzi): unit not given here
# Details: Trypanosoma cruzi, Vero, 96 h, four independent experiments; read-out: pEC50 (T. cruzi) +/- StDev (converted)
# Protocol: T. cruzi parasite, TcI strain Silvio X10/7 subclone A1 [34] was maintained in culture as previously described. Parasites were maintained as amastigotes by passaging on a weekly basis in Vero cells. Culture maintenance infections were carried out at an MOI (multiplicity of infection) of 1.5.
# (§1) This assay was performed as described with the only modification that treatment was 96 h instead of 72 h. Briefly, Vero cells were infected overnight with tissue culture derived T. cruzi trypomastigotes in T225 tissue culture flasks (MOI 5). Any remaining free trypomastigotes were washed away with serum free MEM and the infected Vero cells were harvested by trypsinisation. Compounds (250 nL in DMSO) were dispensed using LabCyte ECHO (Beckman Coulter Life Sciences, USA) into each well of Corning black flat bottomed 384-well plates (Corning, USA). […] The infected Vero cells were then plated into the plates containing the compounds, at 4,000 cells per well in MEM media with 1% FCS. After 96 h incubation at 37°C in presence of 5% CO2, the plates were fixed with 4% formaldehyde for 20 min at room temperature and stained with 5 μg/mL Hoechst 33342. The plates were imaged on a Perkin Elmer Operetta high-content imaging system using a 20× objective. Images were analyzed using the Columbus system (Perkin Elmer). The algorithm first identified the Vero nuclei followed by demarcation of the cytoplasm and identification of intracellular amastigotes. This algorithm reported percent infected Vero cell and total number of Vero cells. All potency determinations were carried out in at least three independent replicates and are reported as pEC50 +/- standard deviation. pEC50 = -log(EC50[M]).
row,SMILES,EC50 [µM]
1,c1ccc(Cc2ccc(OCCn3ccnc3)cc2)cc1 [Compound 13],2.14
2,CCCS(=O)(=O)c1ccc(NS(=O)(=O)c2sc3ccc(Cl)cc3c2C)cc1 [Compound 24],14.8
3,NC(=O)C1Cc2ccccc2CN1C(=O)Cc1cn2ccsc2n1 (stereo not drawn) [Compound 28],> 50.1

# Same assay, conditions: Trypanosoma cruzi, Vero, 96 h; read-out: EC50 (T. cruzi amastigotes)
row,SMILES,EC50 [µM]
1,c1ccc(Cc2ccc(OCCn3ccnc3)cc2)cc1 [Compound 13],2

# Same assay, conditions: Trypanosoma cruzi, Vero, individual replicates; read-out: Max Effect (T. cruzi)
row,SMILES,Emax [%]
1,c1ccc(Cc2ccc(OCCn3ccnc3)cc2)cc1 [Compound 13],94
2,NC(=O)C1Cc2ccccc2CN1C(=O)Cc1cn2ccsc2n1 (stereo not drawn) [Compound 28],27

# Same assay, conditions: Trypanosoma cruzi, Vero, individual replicates; read-out: pEC50 (T. cruzi) (converted)
row,SMILES,EC50 [µM]
1,c1ccc(Cc2ccc(OCCn3ccnc3)cc2)cc1 [Compound 13],1.58
2,NC(=O)C1Cc2ccccc2CN1C(=O)Cc1cn2ccsc2n1 (stereo not drawn) [Compound 28],> 50.1

# Same assay, conditions: individual replicates
SMILES,Max Effect (T. cruzi),pEC50 (T. cruzi)
c1ccc(Cc2ccc(OCCn3ccnc3)cc2)cc1 [Compound 13],97 and 84 and 87,5.6 and 5.7
CCCS(=O)(=O)c1ccc(NS(=O)(=O)c2sc3ccc(Cl)cc3c2C)cc1 [Compound 24],100 and 75 and 105 and 84,4.8 and 4.7 and 5.1
NC(=O)C1Cc2ccccc2CN1C(=O)Cc1cn2ccsc2n1 (stereo not drawn) [Compound 28],21 and 20 and 35,

# Target: T1, LAPTc (acidic M17 leucyl-aminopeptidase from T. cruzi) (Trypanosoma cruzi, UniProt V5BWE3)
# Test: High-throughput single point screening for LAPTc inhibitors by RapidFire-MS
# Type: biochemical
# Details: primary screen, 30 μM, single replicate; read-out: Percent Inhibition
# Protocol: (§2) This assay was previously described. The assay was performed in 384-well clear F-bottom polypropylene plates with a final reaction volume of 15 μL. The reaction mixture contained 7.5 μL LAPTc in 50 mM Tris-HCl, pH 7.5, 0.005% NP-40 and 7.5 μL LSTVIVR peptide substrate (Cambridge Research Biochemicals, Billingham, UK) in the same buffer was added to start the reaction. The reaction was performed at room temperature for 40 min and then stopped with 85 μL 1% formic acid containing 0.15 mg/mL STVIVR* internal standard (Cambridge Research Biochemicals, Billingham, UK).
# Single point screening of a library of 3329 compounds was performed in 384-well clear plates (Greiner 781101) at room temperature. Test compounds (45 nL in DMSO) were transferred to assay plates by an ECHO 550 acoustic dispenser (Labcyte). LAPTc was tested at 3 nM with 150 μM (approximately the value of the apparent Michaelis-Menten constant -appKM- [16]) LSTVIVR peptide substrate in a 40 min reaction. Before addition of substrate, LAPTc was preincubated with 45 nL compounds or DMSO for 15 min. Compounds, dissolved in DMSO, were tested at 30 μM. Controls without compound (the same volume of DMSO, 0% inhibitory effect) and without enzyme and compound (100% inhibitory effect) were prepared. The experiment was performed without replicates. The remaining experimental conditions were maintained as previously described. Data were processed and analysed through ActivityBase XE (IDBS). The selection criterion for hits in this single point screen was percent inhibition larger than the mean plus three standard deviations. All primary screening data are available in ChEMBL (see Data Availability statement).
# T1 sequence (V5BWE3 entry or part of it): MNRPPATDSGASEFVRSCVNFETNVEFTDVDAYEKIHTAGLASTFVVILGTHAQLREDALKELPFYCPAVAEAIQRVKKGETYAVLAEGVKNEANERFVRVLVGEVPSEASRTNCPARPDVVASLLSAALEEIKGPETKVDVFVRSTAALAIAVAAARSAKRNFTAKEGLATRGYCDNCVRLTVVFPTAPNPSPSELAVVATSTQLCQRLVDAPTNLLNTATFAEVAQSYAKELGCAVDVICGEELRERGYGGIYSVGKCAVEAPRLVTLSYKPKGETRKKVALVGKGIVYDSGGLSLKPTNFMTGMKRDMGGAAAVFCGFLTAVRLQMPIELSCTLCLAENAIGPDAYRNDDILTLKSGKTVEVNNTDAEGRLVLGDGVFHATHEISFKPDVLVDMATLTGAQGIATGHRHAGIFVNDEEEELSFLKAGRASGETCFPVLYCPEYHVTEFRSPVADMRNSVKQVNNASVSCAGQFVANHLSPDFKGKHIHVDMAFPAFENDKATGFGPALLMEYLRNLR
row,SMILES,inhibition at 30 µM [%]
1,c1ccc(Cc2ccc(OCCn3ccnc3)cc2)cc1 [Compound 13],41
2,CCCS(=O)(=O)c1ccc(NS(=O)(=O)c2sc3ccc(Cl)cc3c2C)cc1 [Compound 24],29
3,NC(=O)C1Cc2ccccc2CN1C(=O)Cc1cn2ccsc2n1 (stereo not drawn) [Compound 28],27

# System: HepG2 cells
# Test: Cytotoxicity assay on human HepG2 cells (resazurin)
# Type: cell-based
# Details: T. cruzi vs HepG2
row,SMILES,Selectivity window based on the HepG2 data [fold]
1,c1ccc(Cc2ccc(OCCn3ccnc3)cc2)cc1 [Compound 13],20

# Same assay, conditions: individual replicates
SMILES,Max Effect (HepG2),pEC50 (HepG2)
c1ccc(Cc2ccc(OCCn3ccnc3)cc2)cc1 [Compound 13],81 and 82,4.4
CCCS(=O)(=O)c1ccc(NS(=O)(=O)c2sc3ccc(Cl)cc3c2C)cc1 [Compound 24],-2 and -0.697,< 4.0
NC(=O)C1Cc2ccccc2CN1C(=O)Cc1cn2ccsc2n1 (stereo not drawn) [Compound 28],2.59 and 4.33,< 4.0

# System: not listed separately
# Test: as above
# Type: cell-based
# Details: human, HepG2 cells, 72 h, two independent experiments; read-out: pCC50 (HepG2) (converted)
row,SMILES,CC50 at 72 h [µM]
1,c1ccc(Cc2ccc(OCCn3ccnc3)cc2)cc1 [Compound 13],43.7
2,CCCS(=O)(=O)c1ccc(NS(=O)(=O)c2sc3ccc(Cl)cc3c2C)cc1 [Compound 24],> 100
3,NC(=O)C1Cc2ccccc2CN1C(=O)Cc1cn2ccsc2n1 (stereo not drawn) [Compound 28],> 100

# Same assay, conditions: human, HepG2 cells, 72 h; read-out: CC50 (HepG2)
row,SMILES,CC50 at 72 h [µM]
1,c1ccc(Cc2ccc(OCCn3ccnc3)cc2)cc1 [Compound 13],43

# System: Vero cells
# Test: Cytotoxicity against infected Vero host cells in T. cruzi intracellular assay
# Type: cell-based, African green monkey
# Set-up: Max Effect (Vero): unit not given here
# Details: not given
# Protocol: (§3) Briefly, these cells were maintained at 37°C and 5% CO2 in MEM supplemented with 10% FCS, sub-culturing every 2–3 days at a ratio of 1:5 after 5 min treatment with Trypsin-EDTA (Gibco).
# as §1, with “After 96 h incubation at 37°C in presence of 5% CO2, the plates were fixed with 4% formaldehyde for 20 min at room temperature and stained with 5 μg/mL Hoechst 33342.” left out
row,SMILES,Selectivity index (fold window Tc/Vero) [fold]
1,c1ccc(Cc2ccc(OCCn3ccnc3)cc2)cc1 [Compound 13],2.3

# Same assay, conditions: individual replicates
SMILES,Max Effect (Vero),pEC50 (Vero)
c1ccc(Cc2ccc(OCCn3ccnc3)cc2)cc1 [Compound 13],95 and 94 and 89 and 87,5.3 and 5.4 and 5.2
CCCS(=O)(=O)c1ccc(NS(=O)(=O)c2sc3ccc(Cl)cc3c2C)cc1 [Compound 24],92 and 90 and 88 and 91,4.9 and 5.0
NC(=O)C1Cc2ccccc2CN1C(=O)Cc1cn2ccsc2n1 (stereo not drawn) [Compound 28],32 and 37 and 15 and 16,< 4.3

# System: not listed separately
# Test: as above
# Type: cell-based, African green monkey
# Set-up: Max Effect (Vero): unit not given here
# Details: African green monkey, Vero cells infected with T. cruzi; infected Vero host cells, 96 h; read-out: pCC50 (Vero) +/- StDev (converted)
# Protocol: as §3
# as §1, with “After 96 h incubation at 37°C in presence of 5% CO2, the plates were fixed with 4% formaldehyde for 20 min at room temperature and stained with 5 μg/mL Hoechst 33342.” left out
row,SMILES,CC50 at 96 h [µM]
1,c1ccc(Cc2ccc(OCCn3ccnc3)cc2)cc1 [Compound 13],5.01
2,CCCS(=O)(=O)c1ccc(NS(=O)(=O)c2sc3ccc(Cl)cc3c2C)cc1 [Compound 24],11.5
3,NC(=O)C1Cc2ccccc2CN1C(=O)Cc1cn2ccsc2n1 (stereo not drawn) [Compound 28],> 50.1

# Target: T1, LAPTc (acidic M17 leucyl-aminopeptidase from T. cruzi)
# Test: Dose-response studies for LAPTc inhibition by RapidFire-MS
# Type: biochemical
# Details: Initial hit confirmation, single replicate
# Protocol: as §2
# To generate half-maximum inhibitory concentration (IC50) data for LAPTc, 10-point dose-response curves with 100 μM as highest concentration and 1:2 dilution in DMSO (0.195–100 μM range) were prepared in 384 well plates. All other experimental conditions were as described above. All IC50 curve fitting was performed by four-parameter logistic dose-response curve fit using ActivityBase XE (IDBS). At least three replicates were generated for each hit compound.
row,SMILES,Hill Slope
1,c1ccc(Cc2ccc(OCCn3ccnc3)cc2)cc1 [Compound 13],1.3
2,CCCS(=O)(=O)c1ccc(NS(=O)(=O)c2sc3ccc(Cl)cc3c2C)cc1 [Compound 24],2.4
3,NC(=O)C1Cc2ccccc2CN1C(=O)Cc1cn2ccsc2n1 (stereo not drawn) [Compound 28],0.9

# Same assay, conditions: Initial hit confirmation, single replicate; read-out: Maximum Effect
row,SMILES,Emax [%]
1,c1ccc(Cc2ccc(OCCn3ccnc3)cc2)cc1 [Compound 13],77
2,CCCS(=O)(=O)c1ccc(NS(=O)(=O)c2sc3ccc(Cl)cc3c2C)cc1 [Compound 24],96
3,NC(=O)C1Cc2ccccc2CN1C(=O)Cc1cn2ccsc2n1 (stereo not drawn) [Compound 28],87

# Same assay, conditions: Initial hit confirmation, single replicate; read-out: pIC50 (converted)
row,SMILES,IC50 [µM]
1,c1ccc(Cc2ccc(OCCn3ccnc3)cc2)cc1 [Compound 13],31.6
2,CCCS(=O)(=O)c1ccc(NS(=O)(=O)c2sc3ccc(Cl)cc3c2C)cc1 [Compound 24],31.6
3,NC(=O)C1Cc2ccccc2CN1C(=O)Cc1cn2ccsc2n1 (stereo not drawn) [Compound 28],10

# Same assay, conditions: Replicate data generation, individual replicates
SMILES,Hill Slope,Maximum Effect
c1ccc(Cc2ccc(OCCn3ccnc3)cc2)cc1 [Compound 13],0.9 and 1.3 and 1.5,74%
CCCS(=O)(=O)c1ccc(NS(=O)(=O)c2sc3ccc(Cl)cc3c2C)cc1 [Compound 24],2.4 and 2.3 and 2.6,
NC(=O)C1Cc2ccccc2CN1C(=O)Cc1cn2ccsc2n1 (stereo not drawn) [Compound 28],1.5 and 1.4,72% and 74%

# Same assay, conditions: Replicate data generation, individual replicates; read-out: Maximum Effect
row,SMILES,Emax [%]
1,c1ccc(Cc2ccc(OCCn3ccnc3)cc2)cc1 [Compound 13],67
2,CCCS(=O)(=O)c1ccc(NS(=O)(=O)c2sc3ccc(Cl)cc3c2C)cc1 [Compound 24],99
3,NC(=O)C1Cc2ccccc2CN1C(=O)Cc1cn2ccsc2n1 (stereo not drawn) [Compound 28],73

# Same assay, conditions: Replicate data generation, individual replicates; read-out: pIC50 (converted)
row,SMILES,IC50
1,c1ccc(Cc2ccc(OCCn3ccnc3)cc2)cc1 [Compound 13],31.6 µM and 15.8 µM
2,CCCS(=O)(=O)c1ccc(NS(=O)(=O)c2sc3ccc(Cl)cc3c2C)cc1 [Compound 24],12.6 µM and 15.8 µM
3,NC(=O)C1Cc2ccccc2CN1C(=O)Cc1cn2ccsc2n1 (stereo not drawn) [Compound 28],39.8 µM and 50.1 µM

# Same assay, conditions: average of four independent replicates; read-out: pIC50 +/- StDev (LAPTc) (converted)
row,SMILES,IC50 [µM]
1,c1ccc(Cc2ccc(OCCn3ccnc3)cc2)cc1 [Compound 13],21.9
2,CCCS(=O)(=O)c1ccc(NS(=O)(=O)c2sc3ccc(Cl)cc3c2C)cc1 [Compound 24],17.8
3,NC(=O)C1Cc2ccccc2CN1C(=O)Cc1cn2ccsc2n1 (stereo not drawn) [Compound 28],30.2

# Same assay, conditions: whether primary screen hit confirmed in potency experiment
row,SMILES,Hit Confirmation
1,c1ccc(Cc2ccc(OCCn3ccnc3)cc2)cc1 [Compound 13],confirmed
2,CCCS(=O)(=O)c1ccc(NS(=O)(=O)c2sc3ccc(Cl)cc3c2C)cc1 [Compound 24],confirmed
3,NC(=O)C1Cc2ccccc2CN1C(=O)Cc1cn2ccsc2n1 (stereo not drawn) [Compound 28],confirmed
